Laboratory results taken from publication PMC4722887 (Oncology Reports, 2015).

Tested on: CD8 T cells of HLA-A*0201-transgenic HHD mice
Type: in vivo, mouse

Substance: 1: native hTERT peptide, start position 540 (540–548) (ILAKFLHWL) [Peptide 1]
- Immunogenicity when coupled to the surface of the liposomes (HHD mice): no immunogenicity

Substance: 14: heteroclitical peptide derived from #13 (p944) (LQAYRFHAV) [Peptide 14]
- CD8 T-cell immune responses against the native epitope, peptide emulsified in IFA (injected in HHD mice): only weak
